Laboratory results reported in PubChem BioAssay (NCI).
“And” between values parts separate entries of the source, which are not always exact repeats. Equal entries are not always repeated.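 Five concentrations, 48 hours, 96-well plates. GI50 marks 50% less growth. TGI marks complete inhibition of growth.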

Columns and labels:
Experiment in all cases: NCI tumour cell line growth inhibition, 48 h
ACHN renal = system: ACHN renal
786-0 renal = system: 786-0 renal
UACC-257 melanoma = system: UACC-257 melanoma
A498 renal = system: A498 renal
OVCAR-5 ovarian = system: OVCAR-5 ovarian
SF-539 CNS = system: SF-539 CNS
CCRF-CEM leukemia = system: CCRF-CEM leukemia
A549 NSCLC = system: A549 NSCLC
HOP-62 NSCLC = system: HOP-62 NSCLC
MALME-3M melanoma = system: MALME-3M melanoma
IGROV1 ovarian = system: IGROV1 ovarian
T-47D breast = system: T-47D breast

Cc1cc(O)cc(O)c1C(=O)O[C@]1(C)C(=O)C=C2C=C(/C=C/C(=O)O)OC=C2C1=O
TGI (ACHN renal): > 100 µM
TGI (786-0 renal): > 100 µM
TGI (UACC-257 melanoma): > 100 µM
TGI (A498 renal): > 100 µM
TGI (OVCAR-5 ovarian): > 100 µM
TGI (SF-539 CNS): > 100 µM
TGI (CCRF-CEM leukemia): 88.3 µM
TGI (A549 NSCLC): > 100 µM
TGI (HOP-62 NSCLC): > 100 µM
TGI (MALME-3M melanoma): > 100 µM
TGI (IGROV1 ovarian): > 100 µM
TGI (T-47D breast): > 100 µM

Nc1ccc2ccc(-c3ccc[nH]3)nc2n1
TGI (ACHN renal): > 100 µM
TGI (786-0 renal): > 100 µM
TGI (UACC-257 melanoma): > 100 µM
TGI (A498 renal): > 100 µM
TGI (OVCAR-5 ovarian): > 100 µM
TGI (SF-539 CNS): > 100 µM
TGI (A549 NSCLC): > 100 µM
TGI (HOP-62 NSCLC): > 100 µM
TGI (MALME-3M melanoma): > 100 µM
TGI (IGROV1 ovarian): > 100 µM
TGI (T-47D breast): > 100 µM

CN[C@@H](C)[C@@H](O)c1ccccc1
TGI (ACHN renal): > 100 µM
TGI (786-0 renal): > 100 µM
TGI (UACC-257 melanoma): > 100 µM
TGI (OVCAR-5 ovarian): > 100 µM
TGI (SF-539 CNS): > 100 µM
TGI (CCRF-CEM leukemia): > 10 µM
TGI (A549 NSCLC): > 100 µM
TGI (HOP-62 NSCLC): > 100 µM
TGI (MALME-3M melanoma): > 100 µM
TGI (IGROV1 ovarian): > 100 µM
TGI (T-47D breast): > 100 µM

O=[N+]([O-])c1ccc(N2N=C(c3ccc4ccccc4c3O)CC2c2ccc(Cl)cc2)c([N+](=O)[O-])c1 (stereo not drawn)
TGI (ACHN renal): > 100 µM
TGI (786-0 renal): > 100 µM
TGI (UACC-257 melanoma): > 100 µM
TGI (A498 renal): > 100 µM
TGI (OVCAR-5 ovarian): > 100 µM
TGI (SF-539 CNS): > 100 µM
TGI (CCRF-CEM leukemia): 42.7 µM
TGI (A549 NSCLC): > 100 µM
TGI (HOP-62 NSCLC): > 100 µM
TGI (MALME-3M melanoma): > 100 µM
TGI (IGROV1 ovarian): > 100 µM
TGI (T-47D breast): > 100 µM

CCCCCN(CCCCC)CC(C)(C)C(O)c1ccc(OC)c2ccccc12 (stereo not drawn)
TGI (ACHN renal): 27.2 µM
TGI (786-0 renal): 35.7 µM
TGI (UACC-257 melanoma): 26.1 µM
TGI (A498 renal): 28.1 µM
TGI (OVCAR-5 ovarian): 31.4 µM
TGI (SF-539 CNS): 17.6 µM
TGI (CCRF-CEM leukemia): > 100 µM
TGI (A549 NSCLC): 21.1 µM
TGI (HOP-62 NSCLC): > 100 µM
TGI (MALME-3M melanoma): 29.9 µM
TGI (IGROV1 ovarian): 14.3 µM
TGI (T-47D breast): 21.1 µM

CCOC(=O)C(=CN1CCNC1=S)C(=O)OCC
TGI (ACHN renal): > 100 µM
TGI (786-0 renal): > 100 µM
TGI (UACC-257 melanoma): > 100 µM
TGI (A498 renal): > 100 µM
TGI (OVCAR-5 ovarian): > 100 µM
TGI (SF-539 CNS): > 100 µM
TGI (CCRF-CEM leukemia): > 100 µM
TGI (A549 NSCLC): > 100 µM
TGI (HOP-62 NSCLC): > 100 µM
TGI (MALME-3M melanoma): > 100 µM
TGI (IGROV1 ovarian): > 100 µM
TGI (T-47D breast): > 100 µM

CC(=O)N(C(C)=O)n1c(Cc2ccc(C)cc2)nn(C(C)=O)c1=O
TGI (ACHN renal): > 100 µM
TGI (786-0 renal): > 100 µM
TGI (UACC-257 melanoma): > 100 µM
TGI (A498 renal): > 100 µM
TGI (OVCAR-5 ovarian): > 100 µM
TGI (SF-539 CNS): > 100 µM
TGI (CCRF-CEM leukemia): > 100 µM
TGI (A549 NSCLC): > 100 µM
TGI (HOP-62 NSCLC): > 100 µM
TGI (MALME-3M melanoma): > 100 µM
TGI (IGROV1 ovarian): > 100 µM
TGI (T-47D breast): > 100 µM

Cc1ccc(S(=O)(=O)N/N=C2/CCC(C(C)(C)C)CC2Br)cc1 (stereo not drawn)
TGI (ACHN renal): > 100 µM
TGI (786-0 renal): 99.4 µM
TGI (UACC-257 melanoma): > 100 µM
TGI (A498 renal): > 100 µM
TGI (OVCAR-5 ovarian): 43.6 µM
TGI (SF-539 CNS): 50.4 µM
TGI (CCRF-CEM leukemia): 64.2 µM
TGI (A549 NSCLC): > 100 µM
TGI (HOP-62 NSCLC): > 100 µM
TGI (MALME-3M melanoma): 31.2 µM
TGI (IGROV1 ovarian): > 100 µM
TGI (T-47D breast): > 100 µM

CC(=O)NC1(C(=O)N[C@@H](Cc2ccccc2)C(=O)NC2CCCCC2)Cc2ccc3ccccc3c2-c2c(ccc3ccccc23)C1
TGI (ACHN renal): > 100 µM
TGI (786-0 renal): > 100 µM
GI50 (UACC-257 melanoma): 2 µM and 5.32 µM
TGI (UACC-257 melanoma): 10.8 µM and 75.5 µM
TGI (A498 renal): > 100 µM
GI50 (OVCAR-5 ovarian): 26.5 µM and 11.5 µM
TGI (OVCAR-5 ovarian): > 100 µM and 98 µM
TGI (CCRF-CEM leukemia): > 100 µM and 40.3 µM
GI50 (A549 NSCLC): 2.53 µM and 5.95 µM
TGI (A549 NSCLC): > 100 µM
GI50 (HOP-62 NSCLC): 12.2 µM and 57.3 µM
TGI (HOP-62 NSCLC): > 100 µM
GI50 (MALME-3M melanoma): 5 µM and 19.4 µM
TGI (MALME-3M melanoma): > 100 µM
GI50 (IGROV1 ovarian): 16.2 µM and 39.8 µM
TGI (IGROV1 ovarian): > 100 µM
TGI (T-47D breast): > 100 µM

CCCc1nnc2sc(COc3cc(Cl)c(OCc4nn5c(CCC)nnc5s4)cc3Cl)nn12
TGI (ACHN renal): > 100 µM
TGI (786-0 renal): > 100 µM
TGI (UACC-257 melanoma): > 100 µM
TGI (A498 renal): 98.4 µM
TGI (OVCAR-5 ovarian): > 100 µM
TGI (SF-539 CNS): > 100 µM
TGI (CCRF-CEM leukemia): 46.8 µM
TGI (A549 NSCLC): > 100 µM
TGI (HOP-62 NSCLC): > 100 µM
TGI (MALME-3M melanoma): > 100 µM
TGI (IGROV1 ovarian): > 100 µM
TGI (T-47D breast): 63.5 µM

CC12ON(P(=O)(c3ccccc3)c3ccccc3)C(C)(c3ccccc31)c1ccccc12
TGI (ACHN renal): > 100 µM
TGI (786-0 renal): > 100 µM
TGI (UACC-257 melanoma): > 100 µM
TGI (OVCAR-5 ovarian): > 100 µM
TGI (SF-539 CNS): > 100 µM
TGI (CCRF-CEM leukemia): > 100 µM
TGI (A549 NSCLC): > 100 µM
TGI (HOP-62 NSCLC): > 100 µM
TGI (MALME-3M melanoma): > 100 µM
TGI (IGROV1 ovarian): > 100 µM
TGI (T-47D breast): > 100 µM

O=C1C2=C(SCCS2)C(=O)c2c(Sc3ccc(Cl)cc3)c(Sc3ccc(Cl)cc3)c(Sc3ccc(Cl)cc3)c(Sc3ccc(Cl)cc3)c21
TGI (ACHN renal): > 100 µM
TGI (786-0 renal): > 100 µM
TGI (UACC-257 melanoma): > 100 µM
TGI (A498 renal): 73.7 µM
TGI (OVCAR-5 ovarian): > 100 µM
TGI (CCRF-CEM leukemia): 23.8 µM
TGI (A549 NSCLC): > 100 µM
TGI (HOP-62 NSCLC): > 100 µM
TGI (MALME-3M melanoma): 69.8 µM
TGI (IGROV1 ovarian): > 100 µM
TGI (T-47D breast): > 100 µM

CC(=O)OC(C)c1cc2c(s1)C(=O)c1c(C(C)OC(C)=O)csc1C2=O (stereo not drawn)
TGI (ACHN renal): 2.82 µM
TGI (786-0 renal): 4.93 µM
GI50 (UACC-257 melanoma): 0.631 µM
TGI (UACC-257 melanoma): 1.89 µM
TGI (A498 renal): 3.64 µM
TGI (OVCAR-5 ovarian): 3.41 µM
TGI (SF-539 CNS): 2.36 µM
TGI (CCRF-CEM leukemia): 4.44 µM
TGI (A549 NSCLC): 4.52 µM
TGI (HOP-62 NSCLC): 2.5 µM
GI50 (MALME-3M melanoma): 0.186 µM
TGI (MALME-3M melanoma): 0.412 µM
TGI (IGROV1 ovarian): 3.28 µM
TGI (T-47D breast): 5.52 µM

c1csc(-c2ccsc2-c2ccsc2)c1
TGI (ACHN renal): > 100 µM
TGI (786-0 renal): > 100 µM
TGI (UACC-257 melanoma): > 100 µM
TGI (A498 renal): > 100 µM
TGI (OVCAR-5 ovarian): > 100 µM
TGI (SF-539 CNS): > 100 µM
TGI (CCRF-CEM leukemia): > 100 µM
TGI (A549 NSCLC): > 100 µM
TGI (HOP-62 NSCLC): > 100 µM
TGI (IGROV1 ovarian): > 100 µM
TGI (T-47D breast): > 100 µM

O=C(C(Cl)=C(N1CCCCC1)N1CCCCC1)C(Cl)Cl
TGI (ACHN renal): > 100 µM
TGI (786-0 renal): > 100 µM
TGI (UACC-257 melanoma): > 100 µM
TGI (A498 renal): > 100 µM
TGI (SF-539 CNS): > 100 µM
TGI (CCRF-CEM leukemia): > 100 µM
TGI (A549 NSCLC): > 100 µM
TGI (HOP-62 NSCLC): > 100 µM
TGI (MALME-3M melanoma): > 100 µM
TGI (IGROV1 ovarian): > 100 µM
TGI (T-47D breast): > 100 µM

COC([C@@H](OC(=O)c1ccccc1)[C@H](OC(=O)c1ccccc1)C(O)COC(=O)c1ccccc1)n1cc(C)c(=O)[nH]c1=O (stereo partly drawn)
TGI (ACHN renal): > 100 µM
TGI (786-0 renal): 77 µM
TGI (UACC-257 melanoma): > 100 µM
TGI (OVCAR-5 ovarian): 62.6 µM
TGI (A549 NSCLC): > 100 µM
TGI (HOP-62 NSCLC): > 100 µM
TGI (MALME-3M melanoma): 91.7 µM
TGI (IGROV1 ovarian): > 100 µM
TGI (T-47D breast): > 100 µM

Cc1c(O)c(OC2OC(CO)C(O)C(O)C2O)cc2c1C=C[C@@H]1[C@@]2(C)C(=O)C[C@]2(C)[C@@H]([C@@](C)(O)C(=O)CCC(C)(C)O)[C@H](O)C[C@@]12C (stereo partly drawn)
TGI (ACHN renal): 36.2 µM
TGI (786-0 renal): 74.3 µM
TGI (UACC-257 melanoma): 47.2 µM
TGI (A498 renal): 36.7 µM
TGI (OVCAR-5 ovarian): 61.2 µM
TGI (SF-539 CNS): 43.9 µM
TGI (CCRF-CEM leukemia): > 100 µM
TGI (A549 NSCLC): 83 µM
TGI (HOP-62 NSCLC): > 100 µM
TGI (MALME-3M melanoma): 50 µM
TGI (IGROV1 ovarian): 44.3 µM
TGI (T-47D breast): 46.3 µM

CC(C)(C)OC(=O)N1[C@@H]2Cc3ccc(N)cc3[C@@]1(C)c1ccccc12
TGI (ACHN renal): > 100 µM
TGI (786-0 renal): 36.2 µM
TGI (UACC-257 melanoma): 78.2 µM
TGI (A498 renal): 79.6 µM
TGI (OVCAR-5 ovarian): > 100 µM
TGI (CCRF-CEM leukemia): 64.9 µM
TGI (A549 NSCLC): > 100 µM
TGI (HOP-62 NSCLC): > 100 µM
TGI (MALME-3M melanoma): 91 µM
TGI (IGROV1 ovarian): > 100 µM
TGI (T-47D breast): 70.7 µM
